The source of these data is patent US12115152B2, “Pan-RAF kinase inhibitor and use thereof” (HEFEI INSTITUTES OF PHYSICAL SCIENCE, CHINESE ACADEMY OF …, priority 2019, dated 2024).

Holding throughout (assay type): cell-based
Experiment [1] is described as follows: Effect on proliferation of cells, Cell Titer-Glo, 72 hours. Particulars: Mus musculus, BaF3 cells. On the procedure: The compounds of the present invention were tested for their effect on growth of cancer cells (Table 2), to further evaluate the compounds herein for their inhibitory effect on proliferation of cancer cells and their selectivity in inhibiting proliferation of cancer cells. […]
In the example, solutions of the test compound in DMSO at different concentrations (0.000508 μM, 0.00152 μM, 0.00457 μM, 0.0137 μM, 0.0411 μM, 0.123 μM, 0.370 μM, 1.11 μM, 3.33 μM, 10 μM) was added to the above cells respectively. The cells were incubated for 72 hours. The number of viable cells was detected with a Cell Titer-Glo (Promega, USA) Cell Viability Assay Kit by quantifying the ATP in viable cells. The values of GI50 (unit) of the compounds of the present invention against each of the test cells were determined.
(In ATP-based viability assays light output follows the ATP content of the culture.)

Experiment [2] concerns colorectal cancer cell COLO205 (expressing BRAF-V600E mutant kinase). Kind of experiment: Effect on proliferation of cancer cells, Cell Titer-Glo, 72 hours. Particulars: Homo sapiens, COLO 205. How it is done: (§1) The compounds of the present invention were tested for their effect on growth of cancer cells (Table 2), to further evaluate the compounds herein for their inhibitory effect on proliferation of cancer cells and their selectivity in inhibiting proliferation of cancer cells.
(§2) The cells were incubated for 72 hours. The number of viable cells was detected with a Cell Titer-Glo (Promega, USA) Cell Viability Assay Kit by quantifying the ATP in viable cells. The values of GI50 (unit) of the compounds of the present invention against each of the test cells were determined.

The subject of experiment [3] is melanoma cell A375 (expressing BRAF-V600E mutant kinase). The experiment is described as above. Conditions: Homo sapiens, A-375. How it is done: as §1, §2
The test system of experiment [4] is mouse BaF3-FL-BRAF-V600E (stably expressing full-length BRAF-V600E mutant kinase). The description is as above. How it is done: as §1, §2

A word on the GI50: it is the concentration giving 50% growth inhibition. The low end stands for greater sensitivity of the cells, the high end for lower sensitivity of the cells. Turning to `Cc1ccc(NC(=O)c2cccc(C(C)(C)C#N)c2)cc1-n1cc(-c2cnccc2OC2CCOC2)cn1` (stereo not shown) [Example 68, 3-(2-cyanoprop-2-yl)-N-(4-methyl-3-(4-(4-((tetrahydrofuran-3-yl)oxy)pyrid-3-yl)-1H-pyrazol-1-yl)phenyl)benzamide], the GI50 in experiment [1] worked out at 1800 nM; in experiment [2] it was 66 nM; in experiment [3], 27 nM; in experiment [4] it was 4.3 nM.
For the compound `Cc1ccc(NC(=O)c2cccc(C(C)(C)C#N)c2)cc1-n1cc(-c2cncc(OC3COC3)c2)cn1` [Example 84, 3-(2-cyanoprop-2-yl)-N-(4-methyl-3-(4-(5-(oxetan-3-yloxy)pyrid-3-yl)-1H-pyrazol-1-yl)phenyl)benzamide], the GI50 is 8600 nM in experiment [1], 130 nM in experiment [2], 99 nM in experiment [3] and less than 0.3 nM in experiment [4].
As to `Cc1ccc(NC(=O)Cc2cccc(C(F)(F)F)c2)cc1-n1cc(-c2cncc(-c3ccncc3)c2)cn1` [Example 71, N-(3-(4-([3,4′-bipyrid]-5-yl)-1H-pyrazol-1-yl)-4-methylphenyl)-2-(3-(trifluoromethyl)phenyl)acetamide], the GI50 in experiment [1] came to 1100 nM; in experiment [2] it was 56 nM; in experiment [3], 79 nM; in experiment [4], 28 nM.
For `Cc1ccc(NC(=O)c2cccc(C(C)(C)C#N)c2)cc1-n1cc(-c2cnccc2OCC2COC2)cn1` [Example 87, 3-(2-cyanoprop-2-yl)-N-(4-methyl-3-(4-(4-(oxetan-3-ylmethoxy)pyrid-3-yl)-1H-pyrazol-1-yl)phenyl)benzamide] the same measures were 2500 nM, 65 nM, 36 nM and less than 0.3 nM.
`Cc1ccc(NC(=O)c2cccc(C(C)(C)C#N)c2)cc1-n1cnc(-c2cnc3[nH]ccc3c2)c1` [Example 176, N-(3-(4-(1H-pyrrolo[2,3-b]pyrid-5-yl)-1H-imidazol-1-yl)-4-methylphenyl)-3-(2-cyanoprop-2-yl)benzamide]: the figures for the GI50 in experiment [1], in experiment [2] and in experiment [3] were 920 nM, 130 nM and 89 nM, respectively.
On the same counts, the results for `Cc1cn(-c2cc(C(=O)Nc3ccc(C)c(-n4cc(-c5cnc6[nH]ccc6c5)cn4)c3)cc(C(F)(F)F)c2)cn1` [Example 167, N-(3-(4-(1H-pyrrolo[2,3-b]pyrid-5-yl)-1H-pyrazol-1-yl)-4-methylphenyl)-3-(4-methyl-1H-imidazol-1-yl)-5-(trifluoromethyl)benzamide] are 3900 nM, 670 nM and 330 nM.
On to `Cc1ccc(NC(=O)c2cccc(C(F)(F)F)c2)cc1-n1cc(-c2cnccc2OC2CCOC2)cn1` (stereo not shown) [Example 69, N-(4-methyl-3-(4-(4-((tetrahydrofuran-3-yl)oxy)pyrid-3-yl)-1H-pyrazol-1-yl)phenyl)-3-(trifluoromethyl)benzamide], for which the GI50 in experiment [1] was found to be 1200 nM; in experiment [2] it was 61 nM; in experiment [3] it was 35 nM; in experiment [4], 16 nM.
Turning to `Cc1ccc(NC(=O)c2ccc(CN3CCN(C)CC3)c(C(F)(F)F)c2)cc1-n1cnc(-c2cnc3[nH]ccc3c2)c1` [Example 174, N-(3-(4-(1H-pyrrolo[2,3-b]pyrid-5-yl)-1H-imidazol-1-yl)-4-methylphenyl)-4-((4-methylpiperazin-1-yl)methyl)-3-(trifluoromethyl)benzamide], the 50% growth inhibitory concentration (GI50) was 960 nM in experiment [1], 110 nM in experiment [2] and 160 nM in experiment [3].
In the case of `Cc1ccc(NC(=O)c2cccc(C(F)(F)F)c2)cc1-n1cc(-c2cncc(-c3ccc(N4CCN(C)CC4)cc3)c2)cn1` [Example 31, N-(4-methyl-3-(4-(5-(4-(4-methylpiperazin-1-yl)phenyl)pyrid-3-yl)-1H-pyrazol-1-yl)phenyl)-3-(trifluoromethyl)benzamide], the figures for the GI50 in experiment [2] and in experiment [3] were 98 nM and 100 nM, respectively.
Take `Cc1ccc(NC(=O)c2cccc(C(C)(C)C#N)c2)cc1-n1cc(-c2cnc3[nH]ccc3c2)cn1` [Example 171, N-(3-(4-(1H-pyrrolo[2,3-b]pyrid-5-yl)-1H-pyrazol-1-yl)-4-methylphenyl)-3-(2-cyanoprop-2-yl)benzamide]: the 50% growth inhibitory concentration (GI50) was 2600 nM in experiment [1], 360 nM in experiment [2] and 110 nM in experiment [3].
On to `Cc1ccc(NC(=O)c2cccc(C(C)(C)C#N)c2)cc1-n1cc(-c2cncc(-c3ccc(N4CCN(C)CC4)cc3)c2)cn1` [Example 30, N-(4-methyl-3-(4-(5-(4-(4-methylpiperazin-1-yl)phenyl)pyrid-3-yl)-1H-pyrazol-1-yl)phenyl)-3-(2-cyanoprop-2-yl)benzamide], for which the results for the concentration for 50% growth inhibition (GI50) in experiment [2], in experiment [3] and in experiment [4] were 52 nM, 47 nM and 10 nM, respectively.
Take `Cc1ccc(NC(=O)c2cccc(C(F)(F)F)c2)cc1-n1cnc(-c2cnc3[nH]ccc3c2)c1` [Example 177, N-(3-(4-(1H-pyrrolo[2,3-b]pyrid-5-yl)-1H-imidazol-1-yl)-4-methylphenyl)-3-(trifluoromethyl)benzamide]: the values for the GI50 in experiment [1], in experiment [2] and in experiment [3] were 2700 nM, 65 nM and 120 nM, respectively.
In the case of `Cc1ccc(NC(=O)c2cccc(C(C)(C)C#N)c2)cc1-n1cnc(-c2cncc(N3CCOCC3)c2)c1` [Example 109, 3-(2-cyanoprop-2-yl)-N-(4-methyl-3-(4-(5-morpholinopyrid-3-yl)-1H-imidazol-1-yl)phenyl)benzamide], the GI50 in experiment [1] was 3800 nM; in experiment [2], 110 nM; in experiment [3] it was 60 nM.
For `Cc1ccc(NC(=O)c2ccc(CN3CCN(C)CC3)c(C(F)(F)F)c2)cc1-n1cc(-c2cnc3[nH]ccc3c2)cn1` [Example 168, N-(3-(4-(1H-pyrrolo[2,3-b]pyrid-5-yl)-1H-pyrazol-1-yl)-4-methylphenyl)-4-((4-methylpiperazin-1-yl)methyl)-3-(trifluoromethyl)benzamide] the same measures were 3300 nM, 28 nM and 46 nM.
As to `Cc1ccc(NC(=O)c2cccc(C(F)(F)F)c2)cc1-n1cc(-c2cncc(-c3ccncc3)c2)cn1` [Example 13, N-(3-(4-([3,4′-bipyridyl]-5-yl)-1H-pyrazol-1-yl)-4-methylphenyl)-3-(trifluoromethyl)benzamide], the values for the GI50 in experiment [1], in experiment [2] and in experiment [3] were 1300 nM, 62 nM and 81 nM, respectively.
In the case of `Cc1ccc(NC(=O)c2cccc(C(C)C#N)c2)cc1-n1cc(-c2cnc3[nH]ccc3c2)cn1` (stereo not shown) [Example 179, N-(3-(4-(1H-pyrrolo[2,3-b]pyrid-5-yl)-1H-pyrazol-1-yl)-4-methylphenyl)-3-(1-cyanoethyl)benzamide], the GI50 was determined as 3600 nM in experiment [1], 140 nM in experiment [2] and 250 nM in experiment [3].
In the case of `Cc1ccc(NC(=O)c2cccc(C(F)(F)F)c2)cc1-n1cc(-c2cncc(-c3cccnc3)c2)cn1` [Example 2, N-(3-(4-([3,3′-bipyridyl]-5-yl)-1H-pyrazol-1-yl)-4-methylphenyl)-3-(trifluoromethyl)benzamide], the GI50 in experiment [1] was 1700 nM; in experiment [2] it was 48 nM; in experiment [3], 36 nM.
Turning to `Cc1ccc(NC(=O)c2ccc(C)c(C(F)(F)F)c2)cc1-n1cnc(-c2cnc3[nH]ccc3c2)c1` [Example 175, N-(3-(4-(1H-pyrrolo[2,3-b]pyrid-5-yl)-1H-imidazol-1-yl)-4-methylphenyl)-4-methyl-3-(trifluoromethyl)benzamide], the GI50 in experiment [1] was 1600 nM; in experiment [2], 150 nM; in experiment [3], 100 nM.
With `Cc1ccc(NC(=O)c2cccc(-c3ccsc3)c2)cc1-n1cc(-c2cnc3[nH]ccc3c2)cn1` [Example 183, N-(3-(4-(1H-pyrrolo[2,3-b]pyrid-5-yl)-1H-pyrazol-1-yl)-4-methylphenyl)-3-(thien-3-yl)benzamide], the GI50 came out at 3400 nM in experiment [1], 150 nM in experiment [2] and 300 nM in experiment [3].
For `Cc1ccc(NC(=O)c2cc(C(C)(C)C)on2)cc1-n1cnc(-c2cnc3[nH]ccc3c2)c1` [Example 178, N-(3-(4-(1H-pyrrolo[2,3-b]pyrid-5-yl)-1H-imidazol-1-yl)-4-methylphenyl)-5-(tert-butyl)isoxazole-3-carboxamide] the same measures were 3700 nM, 300 nM and 140 nM.
For `Cc1ccc(NC(=O)c2ccc3cccnc3c2)cc1-n1cc(-c2cnc3[nH]ccc3c2)cn1` [Example 182, N-(3-(4-(1H-pyrrolo[2,3-b]pyrid-5-yl)-1H-pyrazol-1-yl)-4-methylphenyl)quinoline-7-carboxamide] the same measures were 2000 nM, 400 nM and 500 nM.
Take `Cc1ccc(NC(=O)c2cccc(C(F)(F)F)c2)cc1-n1cc(-c2cnc3[nH]ccc3c2)cn1` [Example 170, N-(3-(4-(1H-pyrrolo[2,3-b]pyrid-5-yl)-1H-pyrazol-1-yl)-4-methylphenyl)-3-(trifluoromethyl)benzamide]: the results for the GI50 in experiment [1], in experiment [2] and in experiment [3] were 4800 nM, 280 nM and 270 nM, respectively.
